Values of other authors as cited in patent US20040204482A1, “Extended release oral dosage form” (priority 2001, published 2004).

Settings: in vivo

plasma elimination half-life, t1/2: 1.5 h
Compound: NC(=O)c1ccc(F)c2c1C[C@@H](N(C1CCC1)C1CCC1)CO2.O.O=C(O)C(O)C(O)C(=O)O [(R)-3-N,N-dicyclobutylamino-8-fluoro-3,4-dihydro-2H-1-benzopyran-5-carboxamide hydrogen (2R,3R)-tartrate monohydrate]
